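Values below derive from 48-hour exposures of cells grown in 96-well plates, with endpoints linearly interpolated between the two concentrations bracketing the appropriate inhibition level. Abbreviation: GI50, concentration required for 50% inhibition of growth.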 Active and inactive are the calls of the source. No stated cut-off is given here; in the data, active = GI50 up to about 1.1 µM and inactive = higher. Where only a bound is given, the exact number is not on record here.

Assay in all cases: NCI tumour cell line growth inhibition, 48 h
The subject of assay [1] is U-251.
The subject of assay [2] is SK-OV-3.
Assay [3] deals with Malme-3M.
Assay [4] concerns NCI-H522.
For assay [5], the system named is T47D.
Assay [6] concerns OVCAR-5.
The subject of assay [7] is A549.
For assay [8], the system named is HCT-116.
Assay [9] deals with RPMI-8226.
For assay [10], the system named is SF-268.
Assay [11] deals with MCF7.
Assay [12] concerns HCT-15.
Assay [13] concerns HOP-62.
Assay [14] has as its system KM12.
In assay [15] the test system is CAKI-1.
In assay [16] the test system is TK-10.
In assay [17] the test system is UACC-62.
Assay [18] concerns OVCAR-8.
Assay [19] deals with MDA-N.

Consider `CCSc1nc(=S)n(-c2ccccc2)c(C)c1C(C)=O`, for which the GI50 in [1], in [2], in assay [3], in [4], in [5] and in assay [6] was > 100 µM (inactive) throughout. Further, the GI50 was > 100 µM (inactive) in assay [7]; > 100 µM (inactive) in assay [8]; > 100 µM (inactive) in assay [9]; > 100 µM (inactive) in assay [10]; > 100 µM (inactive) in assay [11]; > 100 µM in assay [12]. In addition, the GI50 in assay [13], in assay [14], in [15], in assay [16], in [17] and in [18] was > 100 µM (inactive) throughout.

Take `CCn1c(O)c(C(=O)NC(C)c2ccc([N+](=O)[O-])cc2)c(=O)n(CC)c1=S` (stereo not given): the GI50 is 1.84 µM (inactive) in assay [1]; 3.09 µM (inactive) in assay [2]; 3.33 µM (inactive) in assay [5]; 2.23 µM (inactive) in assay [6]; 3.59 µM (inactive) in [19]; 1.52 µM (inactive) in [7]. Also, the GI50 in assay [8] was 1.64 µM (inactive); in assay [9], 1.43 µM (inactive); in assay [10], 3.92 µM (inactive); in assay [11], 2.34 µM (inactive); in [12] it was 2.58 µM; in [13], 2.31 µM (inactive). The GI50 in assay [14] was 2.01 µM (inactive); in [15] it was 2.55 µM (inactive); in assay [16] it was 4.06 µM (inactive); in assay [17], 2.17 µM (inactive).

Regarding `COc1cc([C@@H]2c3cc4c(cc3[C@@H](c3c(O)cc(O)c5c3O[C@H](c3ccc(O)c(O)c3)[C@@H](O)C5)[C@H]3COC(=O)[C@H]23)OCO4)cc(OC)c1OC`, the GI50 in assay [1] was 1.69 µM (inactive); in [2], 1.83 µM (inactive); in [3], > 100 µM (inactive); in assay [4] it was 14.1 µM (inactive); in assay [5], 2.24 µM (inactive); in assay [6], 27.2 µM (inactive). Further, the GI50 in assay [7] was 29.9 µM (inactive); in assay [8] it was 21.1 µM (inactive); in assay [9], 19.6 µM (inactive); in assay [10] it was 29.7 µM (inactive); in assay [11], 1.72 µM (inactive); in [12] it was 39.2 µM. The GI50 in [13] is 1.88 µM (inactive); in [14], 1.76 µM (inactive); in assay [15], 1.97 µM (inactive); in assay [16] it was 1.79 µM (inactive); in [17] it was 1.72 µM (inactive); in assay [18] it was 44.4 µM (inactive).

In the case of `COc1cc(C2c3c(ccc4ccccc34)C(=O)C3CCC(=O)N32)cc(OC)c1O` (stereo not given), the GI50 in [1], in assay [2], in assay [5], in [6], in [19] and in assay [7] was > 25 µM (inactive) each time. In addition, the GI50 is > 25 µM (inactive) in assay [8]; > 25 µM (inactive) in assay [9]; > 25 µM (inactive) in assay [11]; > 25 µM in assay [12]; > 25 µM (inactive) in assay [13]; > 25 µM (inactive) in [14]. Further, the GI50 in [17] and in [18] was > 25 µM (inactive) in each case.

`O=C(O)CN1CCN2CCOCCN(CC1)CCN(CC(=O)O)CC2`: the GI50 in assay [1], in assay [2], in assay [3], in [4], in assay [5] and in assay [6] was > 100 µM (inactive) each time. Besides, the GI50 in assay [7] is > 100 µM (inactive); in assay [8], > 100 µM (inactive); in assay [9], > 100 µM (inactive); in assay [10], > 100 µM (inactive); in assay [11], > 100 µM (inactive); in [12] it was > 100 µM. The GI50 in [13], in [14], in assay [15], in assay [16], in [17] and in assay [18] was > 100 µM (inactive) in each case.

On to `CCOC(=O)C1=C(C)OC2(O)C=CC(O)=C3C(=O)N(c4ccccc4)C(=O)C312` (stereo not given), for which the GI50 was 35.7 µM (inactive) in assay [1]; 90.8 µM (inactive) in assay [2]; 20 µM (inactive) in assay [3]; 18.5 µM (inactive) in [4]; 45.1 µM (inactive) in assay [5]; 58.5 µM (inactive) in [6]. Besides, the GI50 in [7] is > 100 µM (inactive); in [8] it was 54.8 µM (inactive); in assay [9] it was 14.9 µM (inactive); in assay [10], 38.7 µM (inactive); in assay [11], 29.6 µM (inactive); in assay [12], 30.6 µM. Moreover, the GI50 in [13] was 53.5 µM (inactive); in assay [14] it was 38.6 µM (inactive); in assay [15], 48.8 µM (inactive); in assay [16], 37.4 µM (inactive); in assay [17] it was 29.9 µM (inactive); in assay [18] it was 52 µM (inactive).

For the compound `COc1cc(Nc2nc3ccccc3nc2C(=O)O)cc(OC)c1OC`, the GI50 in assay [1] is > 100 µM (inactive); in assay [2] it was 59.2 µM (inactive); in [3], > 100 µM (inactive); in assay [4] it was 46 µM (inactive); in assay [5] it was 24.3 µM (inactive); in assay [6], > 100 µM (inactive). The GI50 in assay [19] was > 100 µM (inactive); in [7], > 100 µM (inactive); in assay [8], > 100 µM (inactive); in assay [9], 70 µM (inactive); in assay [10] it was 28.3 µM (inactive); in [12] it was 32.4 µM. Moreover, the GI50 in assay [13] was 22.8 µM (inactive); in [14] it was > 100 µM (inactive); in assay [15], 16.4 µM (inactive); in [16], 16.3 µM (inactive); in assay [18] it was > 100 µM (inactive).

Regarding `COC(=O)C1=C(O)CCCC(CCC(C)=O)=C1`, the GI50 in assay [1] is 43.2 µM (inactive); in assay [2], > 100 µM (inactive); in assay [3] it was 41.3 µM (inactive); in assay [4], 12.5 µM (inactive); in [5], 35.6 µM (inactive); in assay [6] it was > 100 µM (inactive). The GI50 in [19] was 31.9 µM (inactive); in assay [7], 95.3 µM (inactive); in assay [8] it was 17.5 µM (inactive); in assay [9], 29.4 µM (inactive); in assay [10] it was > 100 µM (inactive); in assay [12], 39.3 µM. Further, the GI50 in assay [14] was 80.2 µM (inactive); in assay [15], 47.6 µM (inactive); in assay [16], > 100 µM (inactive); in [17], 46 µM (inactive); in [18], 56.5 µM (inactive).

As for `Cn1c(-c2ccccc2)cc(-c2ccc3c(c2)OCO3)c1-c1cccs1`, the GI50 in assay [1], in assay [2], in assay [5], in assay [6], in [19] and in assay [7] was > 100 µM (inactive) each time. In addition, the GI50 in assay [8] is 96.8 µM (inactive); in assay [9], > 100 µM (inactive); in assay [10], > 100 µM (inactive); in assay [11], > 100 µM (inactive); in assay [12], > 100 µM; in [13], > 100 µM (inactive). Moreover, the GI50 in assay [14], in assay [16], in assay [17] and in assay [18] was > 100 µM (inactive) in each case.

Turning to `O=C(O)C(C1NCCS1)N1Cc2ccccc2C1` (stereo not given), the GI50 in [1], in [2], in assay [3], in [5], in assay [6] and in assay [19] was > 100 µM (inactive) each time. Further, the GI50 in assay [7] was > 100 µM (inactive); in [8] it was > 100 µM (inactive); in assay [9], > 100 µM (inactive); in assay [11], > 100 µM (inactive); in assay [12], > 100 µM; in [13], > 100 µM (inactive). In addition, the GI50 in assay [14], in [15], in assay [16], in assay [17] and in [18] was > 100 µM (inactive) in each case.

Turning to `COc1ccc2[nH]c3c(c2c1)CC(=O)N1CCC[C@H](C1)CC31OCCCO1`, the GI50 in assay [1], in assay [2], in assay [3], in assay [5], in assay [6] and in assay [19] was > 100 µM (inactive) each time. Moreover, the GI50 is > 100 µM (inactive) in assay [7]; > 100 µM (inactive) in [8]; > 100 µM (inactive) in assay [9]; > 100 µM (inactive) in assay [10]; > 100 µM (inactive) in assay [11]; > 100 µM in assay [12]. Besides, the GI50 in assay [13] is > 100 µM (inactive); in [14] it was > 100 µM (inactive); in assay [15], > 100 µM (inactive); in assay [16] it was > 100 µM (inactive); in [17] it was 77.1 µM (inactive); in [18] it was > 100 µM (inactive).

As for `NCC1Nc2ccccc2[C@@H](O)C1O` (stereo not given in full), the GI50 in assay [1], in assay [2], in assay [3], in [5], in assay [6] and in assay [19] was > 100 µM (inactive) throughout. Also, the GI50 in assay [7] was > 100 µM (inactive); in assay [8], > 100 µM (inactive); in assay [9] it was > 100 µM (inactive); in [10], > 100 µM (inactive); in assay [11], > 100 µM (inactive); in [12], > 100 µM. Besides, the GI50 in assay [13], in assay [14], in assay [15], in [16], in [17] and in [18] was > 100 µM (inactive) in each case.

The record behind these values is ChEMBL document CHEMBL1201862, “PubChem BioAssay data set” (2004).
